What was measured:
[1] = biological target: Free fatty acid receptor 1 (Homo sapiens, UniProt O14842); assay: Agonist activity at human FFA1 expressed in CHO cells assessed as increase in calcium level measured by Fluo-4-AM staining based FLIPR assay; format: functional, cell-based
[2] = Toxicity in ICR mouse at 500 mg/kg, ig measured after 7 days; format: organism-based; details: in vivo, po, 168 h, time 7 day

Sequence of Free fatty acid receptor 1 (O14842 whole entry): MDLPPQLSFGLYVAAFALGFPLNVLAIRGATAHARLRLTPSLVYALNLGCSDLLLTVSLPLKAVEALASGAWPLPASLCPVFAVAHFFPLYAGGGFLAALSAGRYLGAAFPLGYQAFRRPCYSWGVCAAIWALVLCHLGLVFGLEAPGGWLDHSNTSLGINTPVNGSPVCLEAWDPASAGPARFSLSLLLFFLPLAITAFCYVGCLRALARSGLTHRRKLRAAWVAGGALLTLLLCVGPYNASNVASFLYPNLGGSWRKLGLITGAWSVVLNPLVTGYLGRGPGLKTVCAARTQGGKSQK

EC50 [1] [µM] | SMILES | Activity [2]
0.061 | Cc1cc(OCCCS(C)(=O)=O)ccc1-c1cccc(COc2ccc(OCC(=O)O)c(F)c2)c1 | 
 | COc1ccc2cc(-c3cccc(COc4ccc(OCC(=O)O)c(F)c4)c3)ccc2c1 | Non-Toxic

— ChEMBL document CHEMBL5154704 (Bioorg Med Chem, 2022)
